{"source": "paper PMC5218480", "about": "(PLoS ONE, 2017)", "test_system": "MV-4-11 cells", "experiment": "Gene expression microarray analysis (Affymetrix PrimeView) and GSEA", "assay_type": "cell-based, human", "parameters": "RFU PODN (11730768_x_at) / Fold change /veh PODN (11730768_x_at) / RFU LINC00158 (11744669_a_at) / Fold change /veh LINC00158 (11744669_a_at) / RFU DUSP10 (11751237_a_at) / Fold change /veh DUSP10 (11751237_a_at) / RFU ID3 (11757404_x_at) / Fold change /veh ID3 (11757404_x_at) / RFU PLEKHG5 (11737974_s_at) / Fold change /veh PLEKHG5 (11737974_s_at) / RFU LRRC4B (11730491_at) / Fold change /veh LRRC4B (11730491_at) / RFU GIMAP4 (11747438_a_at) / Fold change /veh GIMAP4 (11747438_a_at) / RFU KRT8 (11758183_x_at) / Fold change /veh KRT8 (11758183_x_at) / RFU CNN1 (11734310_a_at) / Fold change /veh CNN1 (11734310_a_at) / RFU VPS37D (11726825_at) / Fold change /veh VPS37D (11726825_at) / RFU C10orf10 (11716522_x_at) / Fold change /veh C10orf10 (11716522_x_at) / RFU KIR2DL2 /// KIR2DL4 /// KIR2DL5A /// KIR2DL5B /// KIR2DS1 /// KIR2DS2 /// KIR2DS3 /// KIR2DS4 /// KIR3DL3 /// KIR3DL3 /// KIR3DS1 (11738374_at) / Fold change /veh KIR2DL2 /// KIR2DL4 /// KIR2DL5A /// KIR2DL5B /// KIR2DS1 /// KIR2DS2 /// KIR2DS3 /// KIR2DS4 /// KIR3DL3 /// KIR3DL3 /// KIR3DS1 (11738374_at) / RFU C1QL1 (11718748_at) / Fold change /veh C1QL1 (11718748_at) / RFU TMPRSS4 (11747572_a_at) / Fold change /veh TMPRSS4 (11747572_a_at) / RFU HAMP (11756126_x_at) / Fold change /veh HAMP (11756126_x_at) / RFU RNFT2 (11725882_a_at) / Fold change /veh RNFT2 (11725882_a_at) / RFU NR4A2 (11747474_a_at) / Fold change /veh NR4A2 (11747474_a_at) / RFU ABCC12 (11746883_a_at) / Fold change /veh ABCC12 (11746883_a_at) / RFU TMEM136 (11760407_x_at) / Fold change /veh TMEM136 (11760407_x_at) / RFU CLDN22 /// WWC2 (11732394_at) / Fold change /veh CLDN22 /// WWC2 (11732394_at) / RFU HLA-DPB1 (11760878_x_at) / Fold change /veh HLA-DPB1 (11760878_x_at) / RFU SPINT1 (11716480_a_at) / Fold change /veh SPINT1 (11716480_a_at) / RFU GAP43 (11754022_s_at) / Fold change /veh GAP43 (11754022_s_at) / RFU A4GNT (11735810_at) / Fold change /veh A4GNT (11735810_at) / RFU PRB3 (11715151_x_at) / Fold change /veh PRB3 (11715151_x_at) / RFU TUBB4B (11761932_at) / Fold change /veh TUBB4B (11761932_at) / RFU CAPN14 (11732068_a_at) / Fold change /veh CAPN14 (11732068_a_at) / RFU TMCC2 (11721928_a_at) / Fold change /veh TMCC2 (11721928_a_at) / RFU IRGQ (11745062_a_at) / Fold change /veh IRGQ (11745062_a_at) / RFU FAM174B (11720279_a_at) / Fold change /veh FAM174B (11720279_a_at) / RFU TMPRSS4 (11748680_a_at) / Fold change /veh TMPRSS4 (11748680_a_at) / RFU FAM212B (11763350_a_at) / Fold change /veh FAM212B (11763350_a_at) / RFU PLEKHG5 (11743358_a_at) / Fold change /veh PLEKHG5 (11743358_a_at) / RFU ZSCAN30 (11745921_a_at) / Fold change /veh ZSCAN30 (11745921_a_at) / RFU CMKLR1 (11741424_a_at) / Fold change /veh CMKLR1 (11741424_a_at) / RFU LOC101060620 /// MAPK8IP1 (11723275_at) / Fold change /veh LOC101060620 /// MAPK8IP1 (11723275_at) / RFU SPTSSB (11747773_x_at) / Fold change /veh SPTSSB (11747773_x_at) / RFU PRSS12 (11739890_at) / Fold change /veh PRSS12 (11739890_at) / RFU BIN1 (11741810_x_at) / Fold change /veh BIN1 (11741810_x_at) / RFU WNT11 (11732464_a_at) / Fold change /veh WNT11 (11732464_a_at) / RFU C10orf10 (11716521_a_at) / Fold change /veh C10orf10 (11716521_a_at) / RFU C5orf56 (11738089_at) / Fold change /veh C5orf56 (11738089_at) / RFU CYB561 (11721691_x_at) / Fold change /veh CYB561 (11721691_x_at) / RFU ANKRD19P (11752326_a_at) / Fold change /veh ANKRD19P (11752326_a_at) / RFU OR2T12 /// OR2T33 /// OR2T8 (11738714_s_at) / Fold change /veh OR2T12 /// OR2T33 /// OR2T8 (11738714_s_at) / RFU VCAN (11748164_a_at) / Fold change /veh VCAN (11748164_a_at) / RFU JSRP1 (11732532_at) / Fold change /veh JSRP1 (11732532_at) / RFU KRTAP10-11 (11738290_x_at) / Fold change /veh KRTAP10-11 (11738290_x_at) / RFU MYO3A (11730013_a_at) / Fold change /veh MYO3A (11730013_a_at) / RFU EBF3 (11725865_a_at) / Fold change /veh EBF3 (11725865_a_at) / RFU CAMK2N1 (11719241_x_at) / Fold change /veh CAMK2N1 (11719241_x_at) / RFU C5orf56 (11738088_a_at) / Fold change /veh C5orf56 (11738088_a_at) / RFU OLFML3 (11715873_a_at) / Fold change /veh OLFML3 (11715873_a_at) / RFU LOC100653217 /// NTM (11731650_a_at) / Fold change /veh LOC100653217 /// NTM (11731650_a_at) / RFU MAPK11 (11762145_a_at) / Fold change /veh MAPK11 (11762145_a_at) / RFU FIZ1 (11724087_x_at) / Fold change /veh FIZ1 (11724087_x_at) / RFU OASL (11726364_x_at) / Fold change /veh OASL (11726364_x_at) / RFU SOX15 (11748057_x_at) / Fold change /veh SOX15 (11748057_x_at) / RFU CD79A (11719716_a_at) / Fold change /veh CD79A (11719716_a_at) / RFU HIST1H1D (11736915_at) / Fold change /veh HIST1H1D (11736915_at) / RFU CASKIN2 (11723855_a_at) / Fold change /veh CASKIN2 (11723855_a_at) / RFU LOC730098 (11760151_x_at) / Fold change /veh LOC730098 (11760151_x_at) / RFU OR4N2 (11742367_at) / Fold change /veh OR4N2 (11742367_at) / RFU PRRT2 (11749266_a_at) / Fold change /veh PRRT2 (11749266_a_at) / RFU SNX32 (11753110_a_at) / Fold change /veh SNX32 (11753110_a_at) / RFU CDHR5 (11726645_a_at) / Fold change /veh CDHR5 (11726645_a_at) / RFU RCAN1 (11760418_a_at) / Fold change /veh RCAN1 (11760418_a_at) / RFU FAM167A (11723789_a_at) / Fold change /veh FAM167A (11723789_a_at) / RFU FAM26E (11764081_at) / Fold change /veh FAM26E (11764081_at) / RFU ISYNA1 (11749810_s_at) / Fold change /veh ISYNA1 (11749810_s_at) / RFU ACY1 (11761880_at) / Fold change /veh ACY1 (11761880_at) / RFU 11764098_at / Fold change /veh 11764098_at / RFU SAMD14 (11745864_x_at) / Fold change /veh SAMD14 (11745864_x_at) / RFU NPB (11741838_a_at) / Fold change /veh NPB (11741838_a_at) / RFU TMPRSS6 (11731388_a_at) / Fold change /veh TMPRSS6 (11731388_a_at) / RFU KRTAP10-2 (11738614_at) / Fold change /veh KRTAP10-2 (11738614_at) / RFU ARHGAP8 /// PRR5-ARHGAP8 (11727945_x_at) / Fold change /veh ARHGAP8 /// PRR5-ARHGAP8 (11727945_x_at) / RFU KRTAP5-7 /// NADSYN1 (11734609_at) / Fold change /veh KRTAP5-7 /// NADSYN1 (11734609_at) / RFU RASL12 (11751679_a_at) / Fold change /veh RASL12 (11751679_a_at) / RFU CDKN2B (11736163_a_at) / Fold change /veh CDKN2B (11736163_a_at) / RFU PRF1 (11729649_at) / Fold change /veh PRF1 (11729649_at) / RFU, ZNF638 /// ZNF638-IT1 / Fold change vs veh, ZNF638 /// ZNF638-IT1 / RFU, PANK3 / Fold change vs veh, PANK3 / RFU, SH3YL1 / Fold change vs veh, SH3YL1 / RFU, ZEB2 / Fold change vs veh, ZEB2 / RFU, NRIP1 / Fold change vs veh, NRIP1 / RFU, PTTG1IP / Fold change vs veh, PTTG1IP / RFU, CAPN2 / Fold change vs veh, CAPN2 / RFU, MED14 / Fold change vs veh, MED14 / RFU, SNORA58 / Fold change vs veh, SNORA58 / RFU, C1orf63 / Fold change vs veh, C1orf63 / RFU, LRRFIP1 / Fold change vs veh, LRRFIP1 / RFU, NDUFAF7 / Fold change vs veh, NDUFAF7 / RFU, SLC12A2 / Fold change vs veh, SLC12A2 / RFU, IBTK / Fold change vs veh, IBTK / RFU, ESF1 / Fold change vs veh, ESF1 / Fold change vs veh, TMEM50B / RFU, TAOK1 / Fold change vs veh, TAOK1 / RFU, ACBD3 / Fold change vs veh, ACBD3 / RFU, TMA16 / Fold change vs veh, TMA16 / RFU, RWDD3 / Fold change vs veh, RWDD3 / RFU, BCAT1 / Fold change vs veh, BCAT1 / RFU, EDEM3 / Fold change vs veh, EDEM3 / RFU, TMEM33 / Fold change vs veh, TMEM33 / RFU, WDR75 / Fold change vs veh, WDR75 / RFU, AHCTF1 / Fold change vs veh, AHCTF1 / RFU, TFRC / Fold change vs veh, TFRC / RFU, ZDHHC17 / Fold change vs veh, ZDHHC17 / RFU, NOM1 / Fold change vs veh, NOM1 / RFU, ARL8B / Fold change vs veh, ARL8B / RFU, ZBTB11 / Fold change vs veh, ZBTB11 / RFU, TAMM41 / Fold change vs veh, TAMM41 / RFU, KIAA1704 /// LOC100996395 / Fold change vs veh, KIAA1704 /// LOC100996395 / RFU, ING1 / Fold change vs veh, ING1 / RFU, TRMT61B / Fold change vs veh, TRMT61B / RFU, FUBP3 / Fold change vs veh, FUBP3 / RFU, TP53 / Fold change vs veh, TP53 / RFU, TNKS2 / Fold change vs veh, TNKS2 / RFU, ZFP14 / Fold change vs veh, ZFP14 / RFU, ACTR2 / Fold change vs veh, ACTR2 / RFU, PPP3R1 / Fold change vs veh, PPP3R1 / RFU, PIK3R1 / Fold change vs veh, PIK3R1 / RFU, HNRNPA1 / Fold change vs veh, HNRNPA1 / RFU, RNF170 / Fold change vs veh, RNF170 / RFU, ZNF28 / Fold change vs veh, ZNF28 / RFU, RNGTT / Fold change vs veh, RNGTT / RFU, OGT / Fold change vs veh, OGT / RFU, BRD1 / Fold change vs veh, BRD1 / RFU, MARS / Fold change vs veh, MARS / RFU, ZNF655 / Fold change vs veh, ZNF655 / RFU, FAHD1 / Fold change vs veh, FAHD1 / RFU, BDP1 / Fold change vs veh, BDP1 / RFU, LRRCC1 / Fold change vs veh, LRRCC1 / RFU, ARID1A / Fold change vs veh, ARID1A / RFU, ZNF146 / Fold change vs veh, ZNF146 / RFU, ZNF330 / Fold change vs veh, ZNF330 / RFU, GPN3 / Fold change vs veh, GPN3 / RFU, C9orf123 / Fold change vs veh, C9orf123 / RFU, N4BP2L2 / Fold change vs veh, N4BP2L2 / RFU, ARFIP1 / Fold change vs veh, ARFIP1 / RFU, FAM179B / Fold change vs veh, FAM179B / RFU, BCL10 / Fold change vs veh, BCL10 / RFU, UHRF1BP1L / Fold change vs veh, UHRF1BP1L / RFU, BET1 / Fold change vs veh, BET1 / RFU, CNOT2 / Fold change vs veh, CNOT2 / RFU, ZNF268 / Fold change vs veh, ZNF268 / Fold change vs veh, ZNF507 / RFU, DGCR2 / Fold change vs veh, DGCR2 / RFU, WDSUB1 / Fold change vs veh, WDSUB1 / Fold change vs veh, HSP90B1 /// MIR3652 / RFU, ADSS / Fold change vs veh, ADSS / RFU, GK / Fold change vs veh, GK / RFU, ZNF148 / Fold change vs veh, ZNF148 / RFU, TAF9 / Fold change vs veh, TAF9 / RFU, SLC1A5 / Fold change vs veh, SLC1A5 / RFU, SLMO2 / Fold change vs veh, SLMO2 / RFU, ABCC4 / Fold change vs veh, ABCC4 / RFU, LOC101060439 /// RAP1B / Fold change vs veh, LOC101060439 /// RAP1B / RFU, RFX7 / Fold change vs veh, RFX7 / RFU, GTPBP10 / Fold change vs veh, GTPBP10 / RFU, CNEP1R1 / Fold change vs veh, CNEP1R1 / RFU, BIVM-ERCC5 /// ERCC5 / Fold change vs veh, BIVM-ERCC5 /// ERCC5 / RFU, ILF3 / Fold change vs veh, ILF3 / RFU 11762660_at / Fold change /veh 11762660_at / RFU VCAN (11757783_s_at) / Fold change /veh VCAN (11757783_s_at) / RFU DDX43 (11728927_at) / Fold change /veh DDX43 (11728927_at) / RFU KRT8 (11758188_x_at) / Fold change /veh KRT8 (11758188_x_at) / RFU NKD1 (11759106_at) / Fold change /veh NKD1 (11759106_at) / RFU SRD5A1 (11742802_a_at) / Fold change /veh SRD5A1 (11742802_a_at) / RFU TPSAB1 /// TPSB2 (11721975_s_at) / Fold change /veh TPSAB1 /// TPSB2 (11721975_s_at) / RFU GSTM3 (11746129_a_at) / Fold change /veh GSTM3 (11746129_a_at) / RFU IL23R (11737362_x_at) / Fold change /veh IL23R (11737362_x_at) / RFU TMEM51 (11727254_a_at) / Fold change /veh TMEM51 (11727254_a_at) / RFU PIWIL2 (11732686_x_at) / Fold change /veh PIWIL2 (11732686_x_at) / RFU ORM1 (11744905_x_at) / Fold change /veh ORM1 (11744905_x_at) / RFU CCDC152 (11743942_at) / Fold change /veh CCDC152 (11743942_at) / RFU ECM1 (11717891_a_at) / Fold change /veh ECM1 (11717891_a_at) / RFU IL23R (11748794_a_at) / Fold change /veh IL23R (11748794_a_at) / RFU TNFAIP8L3 (11732012_x_at) / Fold change /veh TNFAIP8L3 (11732012_x_at) / RFU MBOAT4 (11741988_at) / Fold change /veh MBOAT4 (11741988_at) / RFU 11764193_at / Fold change /veh 11764193_at / RFU TMEM53 (11763286_at) / Fold change /veh TMEM53 (11763286_at) / RFU MAGEB2 (11727129_at) / Fold change /veh MAGEB2 (11727129_at) / RFU TMEM200A (11744735_a_at) / Fold change /veh TMEM200A (11744735_a_at) / RFU CCDC152 (11751479_a_at) / Fold change /veh CCDC152 (11751479_a_at) / RFU FAM211A (11726209_a_at) / Fold change /veh FAM211A (11726209_a_at) / RFU RGS16 (11746705_a_at) / Fold change /veh RGS16 (11746705_a_at) / RFU VCAN (11755009_s_at) / Fold change /veh VCAN (11755009_s_at) / RFU RHOB (11743442_s_at) / Fold change /veh RHOB (11743442_s_at) / RFU RGS16 (11720943_a_at) / Fold change /veh RGS16 (11720943_a_at) / RFU RGS16 (11720944_at) / Fold change /veh RGS16 (11720944_at) / RFU, VPS4B / Fold change vs veh, VPS4B / RFU, CREB1 / Fold change vs veh, CREB1 / RFU, DNAJC13 / Fold change vs veh, DNAJC13 / RFU, GNAQ / Fold change vs veh, GNAQ / RFU, CDK5R1 / Fold change vs veh, CDK5R1 / RFU, ZRANB3 / Fold change vs veh, ZRANB3 / RFU, CUL4A / Fold change vs veh, CUL4A / RFU, CCNY / Fold change vs veh, CCNY / RFU, UFL1 / Fold change vs veh, UFL1 / RFU, COG3 / Fold change vs veh, COG3 / RFU, DIAPH2 / Fold change vs veh, DIAPH2 / RFU, SKA2 / Fold change vs veh, SKA2 / RFU, AFF3 / Fold change vs veh, AFF3 / RFU, LMF1 / Fold change vs veh, LMF1 / RFU, IPO11 / Fold change vs veh, IPO11 / RFU, DFFB / Fold change vs veh, DFFB / RFU, FOXP1 / Fold change vs veh, FOXP1 / RFU, CARD8 / Fold change vs veh, CARD8 / RFU, STRN3 / Fold change vs veh, STRN3 / RFU, ADK / Fold change vs veh, ADK / RFU, RASSF2 / Fold change vs veh, RASSF2 / RFU, WIPF1 / Fold change vs veh, WIPF1 / RFU, LARP1B / Fold change vs veh, LARP1B / RFU, RASA1 / Fold change vs veh, RASA1 / RFU, RB1 / Fold change vs veh, RB1 / RFU, PPFIA1 / Fold change vs veh, PPFIA1 / RFU, MAT2A / Fold change vs veh, MAT2A / RFU, CCT5 / Fold change vs veh, CCT5 / RFU, WDR92 / Fold change vs veh, WDR92 / RFU, CUX1 / Fold change vs veh, CUX1 / RFU, TTC7A / Fold change vs veh, TTC7A / RFU, TMEM135 / Fold change vs veh, TMEM135 / RFU, DEPTOR / Fold change vs veh, DEPTOR / RFU, CPM / Fold change vs veh, CPM / RFU, DNAJB6 / Fold change vs veh, DNAJB6 / RFU, CACNA2D3 / Fold change vs veh, CACNA2D3 / RFU, DTX4 / Fold change vs veh, DTX4 / RFU, TFCP2 / Fold change vs veh, TFCP2 / RFU, GMCL1 /// GMCL1P1 / Fold change vs veh, GMCL1 /// GMCL1P1 / RFU, AEBP2 / Fold change vs veh, AEBP2 / RFU, SNHG1 /// SNORD22 /// SNORD25 /// SNORD26 /// SNORD27 /// SNORD28 /// SNORD29 /// SNORD31 / Fold change vs veh, SNHG1 /// SNORD22 /// SNORD25 /// SNORD26 /// SNORD27 /// SNORD28 /// SNORD29 /// SNORD31 / Fold change (Aza/veh), C12orf56 (ProbeSet 11735607_a_at) / Fold change (ACY-1035/veh), C12orf56 (ProbeSet 11735607_a_at) / Fold change (Aza/veh), FGFR1OP (ProbeSet 11751329_s_at) / Fold change (ACY-1035/veh), FGFR1OP (ProbeSet 11751329_s_at) / Fold change (Aza/veh), VPS36 (ProbeSet 11739960_a_at) / Fold change (ACY-1035/veh), VPS36 (ProbeSet 11739960_a_at) / RFU SYPL1 (11715823_x_at) / Fold change /veh SYPL1 (11715823_x_at) / RFU IGFBP7 (11715501_s_at) / Fold change /veh IGFBP7 (11715501_s_at) / RFU REEP3 (11722064_at) / Fold change /veh REEP3 (11722064_at) / RFU IGLL1 (11728026_x_at) / Fold change /veh IGLL1 (11728026_x_at): dose or concentration left out as unconfirmed", "conditions": "MV-4-11 cells, 48 hours"}
{"smiles": "Nc1ncn([C@@H]2O[C@H](CO)[C@@H](O)[C@H]2O)c(=O)n1", "note": "[azacitidine]", "values": [{"measurement": "Fold change /veh TMCC2 (11721928_a_at)", "result": 0.97}]}
